From US10919889B2, “Chiral heterocyclic compound with hedgehog pathway antagonist activity, method and use thereof” (SUZHOU KINTOR PHARMACEUTICALS, INC., priority 2016, dated 2021)
Read-outs that look alike come from different tables or passages of the source.

Legend:
[1] = Rat pharmacokinetics experiments; format: in vivo, Sprague-Dawley rats; conditions: for Vd: read-out: Apparent volume of distribution Vd, ss; for AUC(0-t): read-out: Area under the curve AUC0-24 h; for clearance: read-out: Clearance CL; for bioavailability / concentration at 8 h: po; for concentration at 8 h: oral dose 10 mg/kg
Protocol: Male Spraguee-Dawley rats (body weight: 220 g˜250 g) were purchased from Slac Laboratory Animals (Shanghai). […] Blood samples were taken through the posterior orbital vein and the blood samples were placed in a tube containing EDTA (as an anticoagulant) and stored in a −80° C. environment after centrifugation with a refrigerated centrifuge. Blood sample (at an amount of folds of 25 μL) was taken and cold acetonitrile containing the internal standard (100 μL) was added. Sample was centrifuged for 10 minutes to precipitate the plasma protein. Finally, supernatant (10 μL) was injected into the LC-MS/MS system for analysis.
LC-MS/MS analysis method: All samples were analyzed by LC-MS/MS system of API4000 QTRAP mass spectrometer equipped with LC-20AD and CBM-20A controllers, DGU-20A solvent degasser and SIL-20A autosampler (Japan Shimadzu, Colombia, Md., USA). A Bona Aeger Venusil XBP C18 column (50×2.1 mm; filler 5 micron particle size) was used for HPLC separation. The column temperature was maintained at 40° C. The flow rate was 0.3 mL/min and the total run time was 6 minutes.
For the quantification of MS/MS, the API4000 QTRAP mass spectrometer was operated in an ESI positive mode with multiple reaction monitoring (MRM). All compounds and internal standards were set to be monitored during a residence time of 100 milliseconds. The other MS/MS parameters were set as follows: atomization gas (GS1) at 30 psi, 551b turbine pressure, 4500V ion spray voltage, 500° C. ion source temperature. For the selected ion transitions, each analyte was tested at the optimal sensitivity of the cluster potential (DP) and the collision energy (CE). Finally, the data was collected and processed using AB SCIEX Analysist 1.5.2 data collection and integration software.
Test subjects, Sprague-Dawley rats (body weight from about 220 g to about 250 g), were purchased from Slac Laboratory Animals (Shanghai, China). All compounds tested at 1 mg/mL concentration, either intravenous injected at a tail vein at 1 mL/kg dosage for one group of test subjects or administered orally at a dose of 10 mL/kg in another group of test subjects. Then aliquots of blood samples were collected by retro-orbital venous plexus puncture at time intervals after the injection/administration. The blood samples were kept in tubes containing EDTA, centrifuged and stored at −80° C. before analysis. Blank plasma was collected by the same method before rats were treated with compounds. Plasma samples for analysis were obtained by removing about 25 μL from the saved blood sample; adding cold acetonitrile (about 100 μL) as internal standard; centrifuged for 10 minutes to precipitate plasma proteins; and collect about 10 μL of the upper clear solution for analysis done by an LC-MS/MS system.
All samples were analyzed by an API 4000 QTRAP® LC/MS/MS System equipped with Shimadzu LC-20AD pump, Shimadzu CBM-20A controller, SIL-20A autosampler and DGU-20A degasser (Shimadzu, Columbia, Md., USA). A Venusil XBP C18 HPLC Column (2.1×50 mm, 5 μm) (Bonna-Agela Technologies) was used for HPLC separation at isocratic temperature of 40° C. Flow rate was kept at 0.3 mL/min and the total run time was kept at 6 minutes.
Quantification by MS/MS is done using the above-described API 4000 QTRAP mass spectrometer equipped with multiple reaction monitoring (MRM) and positive electrospray ionization (ESI+) modes. All compounds and internal standard were detected at […] of about 100 milliseconds. Other parameters for MS/MS are shown below: Ion Source Gas 1 (GS1) at 30 psi, turbine pressure at 55 pounds, ion spray voltage at 4500 V, and ion source temperature at 500° C. MRM measurements of the analytes were performed using declustering potential (DP) and […] values optimized for each analyte. Finally, all of the operations, the acquisition and analysis of data were controlled by Analyst (version 1.5.2, AB Sciex, USA).

[2] = target: T1, CYP2C19 (Homo sapiens, UniProt P33261); assay: CYP liver enzyme inhibition experiment, CYP-2C19; format: in vitro ADME; conditions: human liver microsomes, pH 7.4, probe S-mephenytoin, 40 µM, test compound 10 μM, HLM, read-out: CYP-2C19 Inhibitory rate (%)
T1 construct: containing HLM (0.2 mg/mL), phosphate buffer (100 mM, pH 7.4); from tissue; host or cells: liver microsomes (HLM)
Protocol: The five major CYP isozymes and their respective probe substrates were: CYP-1A2 (phenacetin, 30 μM), CYP-2C9 (toluenesulfonylurea, 100 μM), CYP-2C19 40 μM), CYP-2D6 (dextromethorphan, 5 μM) and CYP-3A4 (midazolam, 1 μM). All probes were used close to or below their KMS concentrations. The mixture (200 μL) was incubated in a 37° C. constant temperature water bath, containing HLM (0.2 mg/mL), phosphate buffer (100 mM, pH 7.4), NADPH […], test compound (10 μM) and the respective CYP probe substrate. Before the reaction with NADPH, the mixture was pre-incubated for 10 minutes to undergo inhibitor-enzyme interaction. After a specific period of time (10 minutes for CYP-1A2, 2D6 and 3A4; 30 minutes for CYP-2C9 and 2C19), the reaction was quenched by addition to 100 μL solution of appropriate amount of cold acetonitrile. Reaction system was centrifuged and injected into the LC-MS/MS to quantify the concentration of specific metabolite formed from the substrate and the CYP enzyme. Each test compound was tested at least three times independently. […]
Before the start of the reaction with NADPH, the above mixture can be pre-incubated for about 10 minutes to allow inhibitor-enzyme interactions. […] The quenched mixture can be centrifuged, and aliquots of the mixture can then be analyzed by LC-MS/MS to quantify the concentrations of specific metabolic products for each CYP isozyme. […]

[3] = male, Sprague-Dawley, plasma, intravenous injection, 2 mg/kg
[4] = male, Sprague-Dawley, plasma, oral, 10 mg/kg
[5] = male, Sprague-Dawley, plasma, oral, 10 mg/kg, read-out: Maximum plasma concentration Cmax
[6] = male, Sprague-Dawley, plasma, oral, 10 mg/kg, read-out: Peak time Tmax
[7] = male, Sprague-Dawley, plasma, 10 mg/kg, P.O. 10 mg/kg vs I.V. 2 mg/kg, read-out: F %
[8] = male, Sprague-Dawley, plasma, 10 mg/kg, oral 10 mg/kg vs intravenous 2 mg/kg, read-out: Bioavailability F %
[9] = male, Sprague-Dawley, plasma, 10 mg/kg, read-out: plasma concentration after 8 hours
[10] = male, Sprague-Dawley, plasma, 10 mg/kg, read-out: plasma concentration after 8 hours in terms of molecular weight conversion
[11] = male, Sprague-Dawley, plasma, 10 mg/kg, oral, read-out: bioavailability

T1 sequence (P33261 whole entry): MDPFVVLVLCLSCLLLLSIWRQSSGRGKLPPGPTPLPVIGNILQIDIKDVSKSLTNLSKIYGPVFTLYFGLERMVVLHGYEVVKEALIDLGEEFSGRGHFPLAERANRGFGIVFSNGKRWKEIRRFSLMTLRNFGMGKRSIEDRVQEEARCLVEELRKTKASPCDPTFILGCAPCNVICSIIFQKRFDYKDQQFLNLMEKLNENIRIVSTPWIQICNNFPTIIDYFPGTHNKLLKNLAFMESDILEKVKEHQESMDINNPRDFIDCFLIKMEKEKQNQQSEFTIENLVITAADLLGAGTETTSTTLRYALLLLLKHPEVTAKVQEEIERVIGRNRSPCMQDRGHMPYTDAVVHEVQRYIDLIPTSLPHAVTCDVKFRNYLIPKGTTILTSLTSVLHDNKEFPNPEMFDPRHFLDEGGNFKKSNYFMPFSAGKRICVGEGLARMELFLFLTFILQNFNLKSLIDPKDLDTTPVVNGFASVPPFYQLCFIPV

| increase of drug exposure (AUC) over that of A-55 [1] | AUC0-24 h ([1]; I.V., 2 mg/kg) | CL ([1]; I.V., 2 mg/kg) | t1/2 ([1]; I.V., 2 mg/kg) | AUC0-24 h ([1]; P.O., 10 mg/kg) | Cmax ([1]; P.O., 10 mg/kg) | Tmax ([1]; P.O., 10 mg/kg) | Vd [1, 3] | AUC(0-t) [1, 3] | clearance [1, 3] | half-life ([1]; male, Sprague-Dawley, plasma, intravenous injection, 2 mg/kg, read-out: Half-life t1/2 (converted)) | AUC(0-t) [1, 4] | Cmax [1, 5] | Tmax [1, 6] | bioavailability [1, 7] | bioavailability [1, 8] | concentration at 8 h [1, 9] | concentration at 8 h [1, 10] | bioavailability [1, 11] | inhibition at 30 min, 10 µM [2] | SMILES |
| --- | --- | --- | --- | --- | --- | --- | --- | --- | --- | --- | --- | --- | --- | --- | --- | --- | --- | --- | --- | --- |
| 122% | 2233 ng·h/mL | 14.4 mL/min/kg | 1.7 h | 12324 ng·h/mL | 1520 ng/mL | 1 h | 2.2 L/kg | 2230 ng·h/mL | 14.4 mL/min/kg | 102 min | 12300 ng·h/mL | 1520 ng/mL | 1 h | 100% | 100% | 623 ng/mL | 1340 nM | ~100% | 43 ± 2.6% | Cc1cnc(-c2cc(N3CCc4nc(N5CCC(O)CC5)ncc4[C@H]3C)ncc2Cl)c(C)c1 [Compound B1, (R)-1-(6-(5′-chloro-3,5-dimethyl-[2,4′-bipyridin]-2′-yl)-5-methyl-5,6,7,8-tetrahydropyrido[4,3-d]pyrimidin-2-yl)piperidin-4-ol] |
| – | 2905 ng·h/mL | 11.4 mL/min/kg | – | 7685 ng·h/mL | – | – | 3.1 L/kg | 2900 ng·h/mL | 11.4 mL/min/kg | – | 7680 ng·h/mL | 1690 ng/mL | 0.5 h | 53% | 53% | 83 ng/mL | 178 nM | 53% | 44 ± 3.3% | Cc1cnc(-c2cc(N3CCc4nc(N5CCC(O)CC5)ncc4C3C)ncc2Cl)c(C)c1 (racemic) [B] |
